The values below come from patent publication US8658573B2, “Photo-generated carbohydrate arrays and the rapid identification of pathogen-specific antigens and antibodies” (priority 2006, dated 2014).

Molecules are shown by their SMILES.

In the assay the test system is rabbit anti-B. anthracis spore polyclonal IgG antibodies. It is filed as binding.
With `COC(=O)CCCCCO[C@@H]1O[C@@H](C)[C@H](O)[C@@H](O)[C@H]1O[C@@H]1O[C@@H](C)[C@H](O)[C@@H](O[C@@H]2O[C@@H](C)[C@H](O)[C@@H](O)[C@H]2O)[C@H]1O` [compound 17], the “IgG signal detected by carbohydrate arrays (n = 3), Mean” value (“IgG signal detected” below) was 0.98. Still for that read-out and setting: the figure for `CO[C@H]1O[C@H](CO)[C@@H](O)[C@H](O[C@H]2O[C@H](CO)[C@H](O)[C@H](O)[C@H]2O[C@@H]2O[C@@H](C)[C@H](O)[C@@H](O)[C@H]2O)[C@H]1NC(C)=O` [compound 23] is 1.01; for `CO[C@@H]1O[C@@H](C)[C@H](O)[C@@H](O[C@@H]2O[C@@H](C)[C@H](O)[C@@H](O)[C@H]2O)[C@H]1O` [compound 24] it is 1.02; for `CC(=O)N[C@@H](C=O)[C@@H](O)[C@@H](O)[C@H](O)CO` [compound 11] it is 1.03. On the same count and under the same terms, with `COC1O[C@H](CO)[C@H](O)[C@H](O)[C@H]1O[C@@H]1O[C@@H](C)[C@H](O)[C@@H](O)[C@H]1O` (some centres unmarked) [compound 21] the figure was 1.08; with `COC(=O)CCCCCO[C@@H]1O[C@H](C)[C@@H](NC(=O)CC(C)(C)O)[C@H](O)[C@H]1OC` [compound 1], 1.44. `COC(=O)CCCCCO[C@@H]1O[C@@H](C)[C@H](O)[C@@H](O)[C@H]1O[C@@H]1O[C@@H](C)[C@H](O)[C@@H](O[C@@H]2O[C@H](C)[C@@H](NC(=O)CC(C)(C)O)[C@H](O)[C@H]2OC)[C@H]1O` [Id# 3, 5-(Methoxycarbonyl)-pentyl 4-(3-hydroxy-3-methylbutanamido)-2-O-methyl-4,6-dideoxy-β-D-glucopyranosyl-(1→3)-α-L-rhamnopyranosyl-(1→2)-α-L-rhamnopyranoside]: the “recognition of surface-bound carbohydrate by the antibody (FIG. 2A/2B)” value is listed as “recognized by the antibody”. For `COC(=O)CCCCCO[C@@H]1O[C@@H](C)[C@H](O)[C@@H](O[C@@H]2O[C@@H](C)[C@H](O)[C@@H](O)[C@H]2O)[C@H]1O` [compound 16], the “IgG signal detected” value was determined as 1.00. On to `CO[C@H]1O[C@H](CO)[C@H](O)[C@H](O)[C@H]1O[C@@H]1O[C@@H](C)[C@H](O)[C@@H](O[C@@H]2O[C@@H](C)[C@H](O)[C@@H](O[C@H]3O[C@H](CO)[C@@H](O)[C@H](O)[C@H]3NC(C)=O)[C@H]2O)[C@H]1O` [compound 22], for which the “IgG signal detected” value came out at 0.95. As for `COC(=O)CCCCCO[C@@H]1O[C@@H](C)[C@H](O)[C@@H](O)[C@H]1O` [compound 14], the “IgG signal detected” value was 0.97. For `COC(=O)CCCCCO[C@H]1O[C@@H](C)[C@H](O)[C@@H](O)[C@H]1O[C@@H]1O[C@@H](C)[C@H](O)[C@@H](O[C@@H]2O[C@@H](C)[C@H](O)[C@@H](O[C@@H]3O[C@H](C)[C@@H](NC(=O)CC(C)(C)O)[C@H](O)[C@H]3OC)[C@H]2O)[C@H]1O` [Id# 4, 5-(Methoxycarbonyl)-pentyl 4-(3-hydroxy-3-methylbutanamido)-2-O-methyl-4,6-dideoxy-β-D-glucopyranosyl-(1→3)-α-L-rhamnopyranoyl-(1→3)-α-L-rhamnopyranosyl-(1→2)-β-L-rhamnopyranoside], the “recognition of surface-bound carbohydrate by the antibody (FIG. 2A/2B)” value is given as “recognized by the antibody”. For `COC(=O)CCCCCO[C@H]1O[C@@H](C)[C@H](O)[C@@H](O)[C@H]1O` [compound 15], the “IgG signal detected” value worked out at 0.95. The same measure, in the same setting: the figure for `COC(=O)CCCCCO[C@H]1O[C@@H](C)[C@H](O)[C@@H](O)[C@H]1O[C@@H]1O[C@@H](C)[C@H](O)[C@@H](O[C@@H]2O[C@@H](C)[C@H](O)[C@@H](O[C@@H]3O[C@H](C)[C@@H](NC(=O)CC(C)(C)O)[C@H](O)[C@H]3OC)[C@H]2O)[C@H]1O` [compound 4] is 5.16; for `COC(=O)CCCCCO[C@H]1O[C@@H](C)[C@H](O)[C@@H](O)[C@H]1O[C@@H]1O[C@@H](C)[C@H](O)[C@@H](O)[C@H]1O` [compound 19] it is 0.98. For `COC(=O)CCCCCO[C@@H]1O[C@@H](C)[C@H](O)[C@@H](O)[C@H]1O[C@@H]1O[C@@H](C)[C@H](O)[C@@H](O[C@@H]2O[C@H](C)[C@@H](NC(=O)CC(C)(C)O)[C@H](O)[C@H]2OC)[C@H]1O` [compound 3], the “IgG signal detected” value came to 2.73. Same read-out and setting: with `COC(=O)CCCCCO[C@@H]1O[C@@H](C)[C@H](O)[C@@H](O)[C@H]1O[C@@H]1O[C@@H](C)[C@H](O)[C@@H](O)[C@H]1O` [compound 18] the figure was 1.26; with `COC(=O)CCCCCO[C@@H]1O[C@@H](C)[C@H](O)[C@@H](O[C@@H]2O[C@H](C)[C@@H](NC(=O)CC(C)(C)O)[C@H](O)[C@H]2OC)[C@H]1O` [compound 2], 1.65; with `COC(=O)CCCCCO[C@H]1O[C@@H](C)[C@H](O)[C@@H](O)[C@H]1O[C@@H]1O[C@@H](C)[C@H](O)[C@@H](O[C@@H]2O[C@@H](C)[C@H](O)[C@@H](O)[C@H]2O)[C@H]1O` [compound 20], 0.95. On the same count and under the same terms, the figure for `COC(=O)CCCCCO[C@@H]1O[C@@H](C)[C@H](O)[C@@H](O)[C@H]1O[C@@H]1O[C@@H](C)[C@H](O)[C@@H](O[C@@H]2O[C@@H](C)[C@H](O)[C@@H](O[C@@H]3O[C@H](C)[C@@H](NC(=O)CC(C)(C)O)[C@H](O)[C@H]3OC)[C@H]2O)[C@H]1O` [compound 5] is 5.19.

As to `COC(=O)CCCCCO[C@@H]1O[C@@H](C)[C@H](O)[C@@H](O)[C@H]1O[C@@H]1O[C@@H](C)[C@H](O)[C@@H](O[C@@H]2O[C@@H](C)[C@H](O)[C@@H](O[C@@H]3O[C@H](C)[C@@H](NC(=O)CC(C)(C)O)[C@H](O)[C@H]3OC)[C@H]2O)[C@H]1O` [Id# 5, 5-(Methoxycarbonyl)-pentyl 4-(3-hydroxy-3-methylbutanamido)-2-O-methyl-4,6-dideoxy-β-D-glucopyranosyl-(1→3)-α-L-rhamnopyranoyl-(1→3)-α-L-rhamnopyranosyl-(1→2)-α-L-rhamnopyranoside], the “recognition of surface-bound carbohydrate by the antibody (FIG. 2A/2B)” value was “recognized by the antibody”.
